Assay results taken from ChEMBL document CHEMBL1201862, “PubChem BioAssay data set” (2004).
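Method: 48-hour compound exposure of cells in 96-well plates, five concentrations, linear interpolation of endpoints. At the GI50, growth is halved.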 Active and inactive are the calls of the source. No stated cut-off is given here; in the data, active = GI50 up to about 1.1 µM and inactive = higher.

Assays:
Test in all cases: growth of human tumour cells (NCI), 48 h
SK-MEL-2 = test system: SK-MEL-2
U-251 = test system: U-251
SNB-19 = test system: SNB-19
HOP-62 = test system: HOP-62
RXF 393 = test system: RXF 393
OVCAR-3 = test system: OVCAR-3
SN12C = test system: SN12C
SR = test system: SR
TK-10 = test system: TK-10
HCC 2998 = test system: HCC 2998
OVCAR-8 = test system: OVCAR-8
KM-20L2 = test system: KM-20L2
A498 = test system: A498
NCI-H460 = test system: NCI-H460
SK-MEL-28 = test system: SK-MEL-28
NCI-H522 = test system: NCI-H522
HCT-116 = test system: HCT-116
HCT-15 = test system: HCT-15
CAKI-1 = test system: CAKI-1

SMILES | GI50 (SK-MEL-2) | GI50 (U-251) | GI50 (SNB-19) | GI50 (HOP-62) | GI50 (RXF 393) | GI50 (OVCAR-3) | GI50 (SN12C) | GI50 (SR) | GI50 (TK-10) | GI50 (HCC 2998) | GI50 (OVCAR-8) | GI50 (KM-20L2) | GI50 (A498) | GI50 (NCI-H460) | GI50 (SK-MEL-28) | GI50 (NCI-H522) | GI50 (HCT-116) | GI50 (HCT-15) | GI50 (CAKI-1)
Cc1cc(C)c(N)c(C)c1N | > 100 µM (inactive) | > 100 µM (inactive) | > 100 µM (inactive) | > 100 µM (inactive) | > 100 µM (inactive) | > 100 µM (inactive) | > 100 µM (inactive) | > 100 µM (inactive) | > 100 µM (inactive) | > 100 µM (inactive) | > 100 µM (inactive) | > 100 µM (inactive) | > 100 µM (inactive) | > 100 µM (inactive) | > 100 µM (inactive) | > 100 µM (inactive) | > 100 µM (inactive) | > 100 µM | –
COc1cc2c(oc(=O)c3c4occc4cc(OC)c23)c2cccc(OCc3ccccc3)c12 | > 100 µM (inactive) | > 100 µM (inactive) | > 100 µM (inactive) | > 100 µM (inactive) | 78.3 µM (inactive) | > 100 µM (inactive) | > 100 µM (inactive) | > 100 µM (inactive) | > 100 µM (inactive) | > 100 µM (inactive) | > 100 µM (inactive) | > 100 µM (inactive) | 34.4 µM (inactive) | 44.9 µM (inactive) | 49.4 µM (inactive) | > 100 µM (inactive) | > 100 µM (inactive) | > 100 µM | > 100 µM (inactive)
Cc1cc(NCCCCCCCNc2cc(C)nc3cc(N)ccc23)c2ccc(N)cc2n1 | 78.3 µM (inactive) | 28.1 µM (inactive) | 47.2 µM (inactive) | 41.9 µM (inactive) | 79.3 µM (inactive) | 44 µM (inactive) | 10.5 µM (inactive) | 18.6 µM (inactive) | > 100 µM (inactive) | 46.2 µM (inactive) | 36.3 µM (inactive) | 34.2 µM (inactive) | 43.2 µM (inactive) | 27.2 µM (inactive) | 32.7 µM (inactive) | 13.7 µM (inactive) | 27.6 µM (inactive) | > 100 µM | > 100 µM (inactive)
O=c1nc2occc2cn1C1CC(O)C(CO)O1 (stereo not drawn) | – | > 100 µM (inactive) | > 100 µM (inactive) | > 100 µM (inactive) | > 100 µM (inactive) | > 100 µM (inactive) | > 100 µM (inactive) | > 100 µM (inactive) | > 100 µM (inactive) | > 100 µM (inactive) | > 100 µM (inactive) | > 100 µM (inactive) | > 100 µM (inactive) | > 100 µM (inactive) | > 100 µM (inactive) | – | > 100 µM (inactive) | > 100 µM | > 100 µM (inactive)
NC(=S)N1N=C2c3ccccc3CC[C@H]2[C@@H]1c1ccc(Cl)cc1 | 22.3 µM (inactive) | 37.8 µM (inactive) | 47.4 µM (inactive) | 30.1 µM (inactive) | 30 µM (inactive) | 28.2 µM (inactive) | 30.6 µM (inactive) | 26.2 µM (inactive) | 45.7 µM (inactive) | 36.7 µM (inactive) | 31.6 µM (inactive) | 29.8 µM (inactive) | 35.5 µM (inactive) | 27 µM (inactive) | 40.8 µM (inactive) | 9.18 µM (inactive) | 15.5 µM (inactive) | 33.3 µM | –
Cn1cc(C(=O)NCCC(=N)N)cc1NC(=O)C1=[N+](C)C=C(NC(=O)c2cccc(C(=O)NC3=CC(C(=O)Nc4cc(C(=O)NCCC(=N)N)cn4C)=[N+](C)C3)c2)C1 | > 100 µM (inactive) | > 100 µM (inactive) | > 100 µM (inactive) | > 100 µM (inactive) | 35.3 µM (inactive) | > 100 µM (inactive) | 88.5 µM (inactive) | > 100 µM (inactive) | > 100 µM (inactive) | 99.8 µM (inactive) | > 100 µM (inactive) | > 100 µM (inactive) | > 100 µM (inactive) | > 100 µM (inactive) | > 100 µM (inactive) | > 100 µM (inactive) | – | > 100 µM | > 100 µM (inactive)
COC(=O)c1ccc(N/C=C(/C#N)c2ccsc2)cc1 | 22.2 µM (inactive) | 6.92 µM (inactive) | 12.2 µM (inactive) | 13.3 µM (inactive) | 11.4 µM (inactive) | 9.66 µM (inactive) | > 10 µM (inactive) | > 100 µM (inactive) | 16.8 µM (inactive) | 18.4 µM (inactive) | 6.61 µM (inactive) | 12 µM (inactive) | 4.06 µM (inactive) | 32.6 µM (inactive) | 15.6 µM (inactive) | – | 8.57 µM (inactive) | 50.9 µM | 15.1 µM (inactive)
O=NN(CCCl)C(=O)N[C@H]1CCCC[C@@H]1Cl | > 100 µM (inactive) | 30.4 µM (inactive) | > 100 µM (inactive) | – | > 100 µM (inactive) | > 100 µM (inactive) | 88.1 µM (inactive) | 3.48 µM (inactive) | > 100 µM (inactive) | > 100 µM (inactive) | > 100 µM (inactive) | > 100 µM (inactive) | > 100 µM (inactive) | 29.4 µM (inactive) | > 100 µM (inactive) | > 100 µM (inactive) | 50.6 µM (inactive) | > 100 µM | > 100 µM (inactive)
N#CC(C(=O)CCC(=O)Nc1cccc(Cl)c1)c1ccccc1 (stereo not drawn) | > 100 µM (inactive) | > 100 µM (inactive) | 4.05 µM (inactive) | > 100 µM (inactive) | > 100 µM (inactive) | > 100 µM (inactive) | > 100 µM (inactive) | > 100 µM (inactive) | > 100 µM (inactive) | > 100 µM (inactive) | > 100 µM (inactive) | > 100 µM (inactive) | > 100 µM (inactive) | > 100 µM (inactive) | > 100 µM (inactive) | > 100 µM (inactive) | > 100 µM (inactive) | > 100 µM | –
CCCCN[C@H]1C2C3CC4C5CC(C42)C1(C)C53 (stereo partly drawn) | > 100 µM (inactive) | > 100 µM (inactive) | > 100 µM (inactive) | > 100 µM (inactive) | > 100 µM (inactive) | > 100 µM (inactive) | > 100 µM (inactive) | > 100 µM (inactive) | > 100 µM (inactive) | > 100 µM (inactive) | – | > 100 µM (inactive) | > 100 µM (inactive) | > 100 µM (inactive) | > 100 µM (inactive) | > 100 µM (inactive) | > 100 µM (inactive) | > 100 µM | > 100 µM (inactive)
CC(C)c1cccc(C(C)C)c1NC(=O)C(=O)CC(=O)CC(c1ccccc1)c1c(O)oc2ccccc2c1=O (stereo not drawn) | > 100 µM (inactive) | – | > 100 µM (inactive) | > 100 µM (inactive) | > 100 µM (inactive) | > 100 µM (inactive) | > 100 µM (inactive) | > 100 µM (inactive) | > 100 µM (inactive) | > 100 µM (inactive) | > 100 µM (inactive) | > 100 µM (inactive) | > 100 µM (inactive) | > 100 µM (inactive) | > 100 µM (inactive) | > 100 µM (inactive) | > 100 µM (inactive) | – | > 100 µM (inactive)
